According to patent publication US10450316B2, “Certain protein kinase inhibitor” (Chongqing Fochon Pharmaceutical Co., Ltd., priority 2015, dated 2019):

System: BE(2)-C cell
Test: Cell proliferation assay (MTS) in BE(2)-C cells
Assay type: cell-based
Conditions: Homo sapiens, inhibition of BE(2)-C cell proliferation, 48 h
In short: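 BE(2)-C cells (3000/well, DMEM + 10% FBS) were treated for 48 h at 37 °C with compound at 1.5–10000 nM in nine concentrations. Viability was measured by MTS (2 h, stopped with SDS) at 490/650 nm, and IC50 was calculated from the dose-response.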

## CCN1CC2(C1)CN(Cc1ccc(Nc3ncc(F)c(-c4cc(F)c5nc6n(c5c4)[C@H](C)CC6)n3)nc1)C2 [Example 97, (R)-N-(5-((6-ethyl-2,6-diazaspiro[3.3]heptan-2-yl)methyl)pyridin-2-yl)-5-fluoro-4-(5-fluoro-1-methyl-2,3-dihydro-1H-benzo[d]pyrrolo[1,2-a]imidazol-7-yl)pyrimidin-2-amine]
  IC50: 10 to 100 nM

## C[C@@H]1CCc2nc3c(F)cc(-c4nc(Nc5ccc(CN6CC7CNCC7C6)cn5)ncc4F)cc3n21 (stereo partly drawn) [Example 98, 5-fluoro-4-((R)-5-fluoro-1-methyl-2,3-dihydro-1H-benzo[d]pyrrolo[1,2-a]imidazol-7-yl)-N-(5-((hexahydropyrrolo[3,4-c]pyrrol-2(1H)-yl)methyl)pyridin-2-yl)pyrimidin-2-amine]
  IC50: > 100 nM

## C[C@@H]1CCc2nc3c(F)cc(-c4nc(Nc5ccc(CN6CC7CN(C)CC7C6)cn5)ncc4F)cc3n21 (stereo partly drawn) [Example 99, 5-fluoro-4-((R)-5-fluoro-1-methyl-2,3-dihydro-1H-benzo[d]pyrrolo[1,2-a]imidazol-7-yl)-N-(5-((5-methylhexahydropyrrolo[3,4-c]pyrrol-2(1H)-yl)methyl)pyridin-2-yl)pyrimidin-2-amine]
  IC50: 10 to 100 nM

## CCN1CC2CN(Cc3ccc(Nc4ncc(F)c(-c5cc(F)c6nc7n(c6c5)[C@H](C)CC7)n4)nc3)CC2C1 (stereo partly drawn) [Example 100, N-(5-((5-ethylhexahydropyrrolo[3,4-c]pyrrol-2(1H)-yl)methyl)pyridin-2-yl)-5-fluoro-4-((R)-5-fluoro-1-methyl-2,3-dihydro-1H-benzo[d]pyrrolo[1,2-a]imidazol-7-yl)pyrimidin-2-amine]
  IC50: 10 to 100 nM

## C[C@@H]1CCc2nc3c(F)cc(-c4nc(Nc5ccc(CN6C7CCC6CNC7)cn5)ncc4F)cc3n21 [Example 101, N-(5-((3,8-diazabicyclo[3.2.1]octan-8-yl)methyl)pyridin-2-yl)-5-fluoro-4-((R)-5-fluoro-1-methyl-2,3-dihydro-1H-benzo[d]pyrrolo[1,2-a]imidazol-7-yl)pyrimidin-2-amine]
  IC50: > 100 nM

## C[C@@H]1CCc2nc3c(F)cc(-c4nc(Nc5ccc(CN6C7CCC6CN(C)C7)cn5)ncc4F)cc3n21 [Example 102, 5-fluoro-4-((R)-5-fluoro-1-methyl-2,3-dihydro-1H-benzo[d]pyrrolo[1,2-a]imidazol-7-yl)-N-(5-((3-methyl-3,8-diazabicyclo[3.2.1]octan-8-yl)methy1)pyridin-2-yl)pyrimidin-2-amine]
  IC50: 10 to 100 nM

## CCN1CC2CCC(C1)N2Cc1ccc(Nc2ncc(F)c(-c3cc(F)c4nc5n(c4c3)[C@H](C)CC5)n2)nc1 [Example 103, N-(5-((3-ethyl-3,8-diazabicyclo[3.2.1]octan-8-yl)methyl)pyridin-2-yl)-5-fluoro-4-((R)-5-fluoro-1-methyl-2,3-dihydro-1H-benzo[d]pyrrolo[1,2-a]imidazol-7-yl)pyrimidin-2-amine]
  IC50: 10 to 100 nM

## C[C@@H]1CCc2nc3c(F)cc(-c4nc(Nc5ccc(CN6CC7CCC(C6)N7)cn5)ncc4F)cc3n21 [Example 104, N-(5-((3,8-diazabicyclo[3.2.1]octan-3-yl)methyl)pyridin-2-yl)-5-fluoro-4-((R)-5-fluoro-1-methyl-2,3-dihydro-1H-benzo[d]pyrrolo[1,2-a]imidazol-7-yl)pyrimidin-2-amine]
  IC50: 10 to 100 nM

## C[C@@H]1CCc2nc3c(F)cc(-c4nc(Nc5ccc(CN6CC7CCC(C6)N7C)cn5)ncc4F)cc3n21 [Example 105, 5-fluoro-4-((R)-5-fluoro-1-methyl-2,3-dihydro-1H-benzo[d]pyrrolo[1,2-a]imidazol-7-yl)-N-(5-((8-methyl-3,8-diazabicyclo[3.2.1]octan-3-yl)methyl)pyridin-2-yl)pyrimidin-2-amine]
  IC50: 10 to 100 nM

## CCN1C2CCC1CN(Cc1ccc(Nc3ncc(F)c(-c4cc(F)c5nc6n(c5c4)[C@H](C)CC6)n3)nc1)C2 [Example 106, N-(5-((8-ethyl-3,8-diazabicyclo[3.2.1]octan-3-yl)methyl)pyridin-2-yl)-5-fluoro-4-((R)-5-fluoro-1-methyl-2,3-dihydro-1H-benzo[d]pyrrolo[1,2-a]imidazol-7-yl)pyrimidin-2-amine]
  IC50: 10 to 100 nM
